Results taken from patent US8691850B2, “Substituted phenylaminothiazoles and use thereof” (Bayer Intellectual Property GmbH, priority 2004, dated 2014).

melting point: 192 to 194 °C
SMILES: N#Cc1c(N)nc(SCc2csc(Nc3cccc(Cl)c3)n2)c(C#N)c1-c1ccc(OCC(O)CO)cc1 (stereo not shown) [Example 1, 2-Amino-6-[({2-[(3-chlorophenyl)amino]-1,3-thiazol-4-yl}methyl)thio]-4-[4-(2,3-dihydroxypropoxy)phenyl]pyridine-3,5-dicarbonitrile]
